Data taken from US20030187075A1, “Sponge antitumor compounds” (priority 2000, published 2003).
Values after ≈ are worked out from the molar mass of the structure shown.

What was measured:
Assay type in all cases: cell-based
[1] = test system: A549 (Human Lung); assay: Antitumoral activity, cytotoxicity against A549; conditions: A549 (Human Lung) cells
[2] = test system: HT29 (Human Colon); assay: Antitumoral activity, cytotoxicity against HT29; conditions: HT-29; HT29 (Human Colon) cells
[3] = test system: P388 Leukaemia; assay: Antitumoral activity, cytotoxicity against P388; conditions: Mus musculus; P388 Leukaemia cells
[4] = test system: MEL28 (Melanoma); assay: Antitumoral activity, cytotoxicity against MEL28; conditions: Homo sapiens, SK-MEL-28; MEL28 (Melanoma) cells

Row | SMILES | IC50 [1] | IC50 [2] | IC50 [3] | IC50 [4]
1 | C=C(CC[C@@H]1C(=C)CC[C@H](Cl)C1(C)C)C(Cl)CN=C(Cl)Cl (stereo partly shown) [Compound 1] | 0.1 µg/mL (≈ 0.269 µM) | 0.1 µg/mL (≈ 0.269 µM) | 1 µg/mL (≈ 2.69 µM) | 0.1 µg/mL (≈ 0.269 µM)
2 | CC1(C)[C@@H](Cl)[C@@H](O)C[C@]2(C)C/C(=C/C=O)CC[C@@H]12 [Compound 2] | 1 µg/mL (≈ 3.69 µM) | 1 µg/mL (≈ 3.69 µM) | 1 µg/mL (≈ 3.69 µM) | 1 µg/mL (≈ 3.69 µM)
3 | CC1(C)[C@@H](Cl)[C@@H](O)C[C@]2(C)C/C(=C\C=O)CC[C@@H]12 [Compound 3] | 1 µg/mL (≈ 3.69 µM) | 1 µg/mL (≈ 3.69 µM) | 1 µg/mL (≈ 3.69 µM) | 1 µg/mL (≈ 3.69 µM)
4 | CC1(C)[C@@H](Cl)CC[C@]2(C)C=C(C=CN=C(Cl)Cl)CC[C@@H]12 [Compound 4] | 1 µg/mL (≈ 2.99 µM) | 1 µg/mL (≈ 2.99 µM) | 1 µg/mL (≈ 2.99 µM) | 1 µg/mL (≈ 2.99 µM)
